# Test system: cardiac gene expression
# Experiment: Microarray analysis of cardiac gene expression (GeneChip Mouse Genome 430 2.0)
# Format: in vivo, mice
# Experimental: Microarray Sample Preparation and Analysis. Animal hearts were rapidly removed, and the atria and right ventricles were cut and immediately plunged into TRIzol Reagent (Life Technologies). Total RNA was isolated following the manufacturer's instructions, purified by phenol-chloroform extraction and then ethanol precipitation, and 20 μg further processed for microarray analysis. Briefly, cDNA synthesis, in vitro transcription, and labeling and fragmentation to produce the oligonucleotide probes were performed as instructed by the GeneChip manufacturer (Affymetrix). The probes were first hybridized to a test array (Affymetrix) and then to the GeneChip Mouse Genome 430 2.0 Array, using the GeneChip Hybridization Oven 640. The chips were washed in a GeneChip Fluidics Station 450 (Affymetrix), and the results were visualized with a GeneChip G7 scanner (Affymetrix). RMA normalization, pairwise comparisons, Student's t test and Benjamini and Hochberg correction were subsequently performed using GeneSifter (VizX Labs, Seattle, Wash.) and Spotfire DecisionSite 8.3 (Spotfire, Inc., Somerville, Mass.).
# Effects on Gene Expression Profile. […] One mouse heart was used for each array, and was performed in triplicate, generating a total of 12 arrays. GeneSifter was used to perform RMA normalization, pairwise comparisons of averaged signal intensity values, and Student's t-test with Benjamini and Hochberg correction, and Spotfire was used to perform pairwise comparisons. […] Additionally, genes that were altered between any two N or cardiac hypertrophy samples were removed, as these alterations most likely represented normal variations between mice.
compound,measurement,setting,value
C[C@H]1c2cccc(O)c2C(=O)C2=C(O)[C@]3(O)C(=O)C(C(N)=O)=C(O)[C@@H](N(C)C)[C@@H]3[C@@H](O)[C@@H]21 [doxycycline],FC EST,"GenBank BM245060, vs mice given only isoproterenol",−2.3
same,FC Fos-like antigen 2 (Fosl2),"GenBank BM245170, vs mice given only isoproterenol",−2.6
same,FC ESTs,"GenBank BM246377, vs mice given only isoproterenol",−1.9
same,FC Cytoglobin (Cygb),"GenBank BM899392, vs mice given only isoproterenol",1.8
same,FC Flavin containing monooxygenase 2 (Fmo2),"GenBank BM936480, vs mice given only isoproterenol",−2.7
same,FC Tripartite motif protein 24 (Trim24),"GenBank BM945528, heart, drug + isoproterenol vs isoproterenol-only mice, CH vs normal FC 1.6",−1.8 fold
same,FC Headcase homolog (Heca),"GenBank BQ031006, vs mice given only isoproterenol",−2.2
same,FC SERTA domain containing 4 (Sertad4),"GenBank BQ174721, vs mice given only isoproterenol",2.0
same,FC EST,"GenBank BQ176399, vs mice given only isoproterenol",−1.6
same,"FC Sema domain, seven thrombospondin repeats (type 1 and type 1-like), transmembrane domain (TM) and short cytoplasmic domain, (semaphorin) 5A (Sema5a)","GenBank BQ176610, vs mice given only isoproterenol",−3.9
same,FC Transmembrane protein 38B (Tmem38b),"GenBank C77858, heart, drug + isoproterenol vs isoproterenol-only mice, CH vs normal FC 2.1",−1.5 fold
same,FC Mitochondrial ribosomal protein L45 (Mrpl45),"GenBank C79823, vs mice given only isoproterenol",2.4
same,FC Leukemia inhibitory factor receptor (Lifr),"GenBank D17444, vs mice given only isoproterenol",−2.0
same,FC Tripartite motif protein 25 (Trim25),"GenBank D63902, heart, drug + isoproterenol vs isoproterenol-only mice, CH vs normal FC 1.7",−2.1 fold
same,FC L20048,"GenBank L20048, vs mice given only isoproterenol",−1.9
same,FC Cytoplasmic beta-actin (Actb),"GenBank M12481, vs mice given only isoproterenol",3.1
same,FC Multidrug resistae protein (MDR) (Acb1a),"GenBank M30697, vs mice given only isoproterenol",−2.6
same,FC Thymoma viral proto-oogene 2 (Akt2),"GenBank NM_007434, heart, drug + isoproterenol vs isoproterenol-only mice, CH vs normal FC −1.8",1.7 fold
same,FC Early B-cell factor (Ebf1),"GenBank NM_007897, vs mice given only isoproterenol",2.1
same,FC Epidermal growth factor receptor pathway substrate 8 (Eps8),"GenBank NM_007945, vs mice given only isoproterenol",−1.8
same,"FC Tumor necrosis factor receptor superfamily, member 6 (Tnfrsf6) (Fas)","GenBank NM_007987, heart, drug + isoproterenol vs isoproterenol-only mice, CH vs normal FC 2.8",−2.4 fold
same,"FC Glutamate-cysteine ligase, modifier subunit (Gclm)","GenBank NM_008129, vs mice given only isoproterenol",−1.8
same,FC Jun-B oogene (Junb),"GenBank NM_008416, vs mice given only isoproterenol",−2.0
same,"FC Potassium voltage-gated channel, shaker-related subfamily, member 5 (Kcna5)","GenBank NM_008419, vs mice given only isoproterenol",−2.4
same,FC NM_008808,"GenBank NM_008808, vs mice given only isoproterenol",1.7
same,FC Pphospholipid scramblase 2 (Plscr2),"GenBank NM_008880, vs mice given only isoproterenol",−1.8
same,FC S100 calcium binding protein A9 (calgranulin B) (S100a9),"GenBank NM_009114, vs mice given only isoproterenol",−14.0
same,"FC Tubulin, alpha 3 (Tuba3)","GenBank NM_009446, heart, drug + isoproterenol vs isoproterenol-only mice, CH vs normal FC −1.9",1.9 fold
same,"FC Tubulin, alpha 4 (Tuba4)","GenBank NM_009447 (first entry, r874), heart, drug + isoproterenol vs isoproterenol-only mice, CH vs normal FC −4.3",4.7 fold
same,"FC Tubulin, alpha 4 (Tuba4)","GenBank NM_009447 (second entry, r876), heart, drug + isoproterenol vs isoproterenol-only mice, CH vs normal FC −6.2",5.8 fold
same,FC Glucocorticoid-induced leucine zipper (Gilz) (Dsip1),"GenBank NM_010286, vs mice given only isoproterenol",−2.5
same,"FC Lymphocyte antigen 6 complex, locus C (Ly6c)","GenBank NM_010741, vs mice given only isoproterenol",−2.1
same,FC Matrix metalloproteinase 3 (Mmp3),"GenBank NM_010809, vs mice given only isoproterenol",−2.9
same,"FC Notch gene homolog 4, (Drosophila) (Notch4)","GenBank NM_010929, vs mice given only isoproterenol",−2.2
same,FC Proline dehydrogenase (Prodh),"GenBank NM_011172, vs mice given only isoproterenol",−2.0
same,FC Small inducible cytokine A9 (Scya9) (Ccl9) (Mip-1[…]),"GenBank NM_011338, vs mice given only isoproterenol",−2.1
same,FC Interferon-related developmental regulator 1 (Ifrd1),"GenBank NM_013562, vs mice given only isoproterenol",−1.6
same,FC Methyl-CpG binding domain protein 1 (Mbd1),"GenBank NM_013594, vs mice given only isoproterenol",−2.6
same,FC Metallothionein 1 (Mt1),"GenBank NM_013602, vs mice given only isoproterenol",−2.4
same,FC S100 calcium binding protein A8 (calgranulin A) (S100a8),"GenBank NM_013650, vs mice given only isoproterenol",−19.9
same,FC Mitogen-activated protein kinase kinase kinase 6 (Map3k6),"GenBank NM_016693, vs mice given only isoproterenol",−3.2
same,"FC Tubulin, alpha 8 (Tuba8)","GenBank NM_017379, heart, drug + isoproterenol vs isoproterenol-only mice, CH vs normal FC −3.3",3.1 fold
same,"FC Small inducible cytokine subfamily B (Cys-X-Cys), member 13 (Scyb13) (Cxcl13)","GenBank NM_018866, vs mice given only isoproterenol",−4.4
same,FC Ras-related associated with diabetes (Rrad),"GenBank NM_019662, vs mice given only isoproterenol",2.4
same,"FC Phosphodiesterase 4A, cAMP specific (Pde4a)","GenBank NM_019798, vs mice given only isoproterenol",1.8
same,FC Toll-like receptor 4 (TLR4),"GenBank NM_021297, heart, drug + isoproterenol vs isoproterenol-only mice, CH vs normal FC 3.2",−2.6 fold
same,"FC Solute carrier family 43, member 3 (Slc43a3)","GenBank NM_021398, vs mice given only isoproterenol",−2.0
same,"FC Titin immunoglobulin domain protein (Myotilin, Myot)","GenBank NM_021484, heart, drug + isoproterenol vs isoproterenol-only mice, CH vs normal FC 4.8",−3.0 fold
same,FC Jutophilin 2 (Jph2),"GenBank NM_021566, vs mice given only isoproterenol",2.1
same,FC Transformation related protein 53 inducible nuclear protein 1 (Trp53inp1),"GenBank NM_021897, heart, drug + isoproterenol vs isoproterenol-only mice, CH vs normal FC 4.8",−3.5 fold
same,"FC Homocysteine-inducible, endoplasmic reticulum stress-inducible, ubiquitin-like domain member 1 (Herpud1)","GenBank NM_022331, vs mice given only isoproterenol",−3.0
same,"FC Retinol binding protein 7, cellular (Rbp7)","GenBank NM_023462, vs mice given only isoproterenol",−1.6
same,FC Thioredoxin interacting protein (Txnip),"GenBank NM_023719, heart, drug + isoproterenol vs isoproterenol-only mice, CH vs normal FC 1.8",−3.5 fold
same,FC F-box only protein 32 (Fbxo32),"GenBank NM_026346, vs mice given only isoproterenol",−4.7
same,"FC Membrane-spanning 4-domains, subfamily A, member 6d (Ms4a6d)","GenBank NM_026835, vs mice given only isoproterenol",−2.2
same,"FC Membrane-spanning 4-domains, subfamily A, member 6B (Ms4a6b)","GenBank NM_027209, vs mice given only isoproterenol",−1.7
same,FC Leucine-rich alpha-2-glycoprotein (Lrg-pending),"GenBank NM_029796, vs mice given only isoproterenol",−2.9
same,FC Fibroblast growth factor 16 (Fgf16),"GenBank NM_030614, vs mice given only isoproterenol",2.8
same,FC Transcription factor 23 (Tcf23),"GenBank NM_053085, heart, drug + isoproterenol vs isoproterenol-only mice, CH vs normal FC 3.5",−2.3 fold
same,"FC Secretoglobin, family 3A, member 1 (Scgb3a1)","GenBank NM_054037, vs mice given only isoproterenol",−2.2
